{
  "source": "ChEMBL document CHEMBL1157316",
  "about": "“Resin glycosides from the flowers of Ipomoea murucoides” (2006)",
  "data": [
    {"test_system": "KB", "assay": "Cytotoxicity against human KB cells after 72 hrs by SRB method", "assay_type": "functional", "conditions": "read-out: ED50 (the source's name)", "units": {"EC50": "µg/mL"}, "values": [
      {"smiles": "CC[C@]1(O)C[C@@H]2CN(CCc3c([nH]c4ccccc34)[C@@](C(=O)OC)(c3cc4c(cc3OC)N(C)[C@H]3[C@@](O)(C(=O)OC)[C@H](OC(C)=O)[C@]5(CC)C=CCN6CC[C@]43[C@@H]65)C2)C1", "note": "[VINBLASTINE]", "EC50": 0.05}
    ]},
    {"test_system": "HEp-2", "assay": "Cytotoxicity against human Hep2 cells after 72 hrs by SRB method", "assay_type": "functional", "conditions": "HEp-2, 72 h, read-out: ED50 (the source's name)", "units": {"EC50": "µg/mL"}, "values": [
      {"smiles": "CCCCC[C@H]1CCCCCCCCCC(=O)O[C@H]2[C@@H](O)[C@H](O[C@H]3[C@H](O1)O[C@H](C)[C@H](O)[C@@H]3O)O[C@@H](C)[C@@H]2O[C@@H]1O[C@@H](C)[C@H](O[C@@H]2O[C@@H](C)[C@H](OC(=O)[C@@H](C)CC)[C@@H](O)[C@H]2O)[C@@H](O[C@@H]2O[C@H](CO)[C@@H](O)[C@H](O)[C@H]2O)[C@H]1OC(=O)[C@@H](C)CC", "note": "[MURUCOIDIN V]", "EC50": "> 20"},
      {"smiles": "CCCCC[C@H]1CCCCCCCCCC(=O)O[C@H]2[C@H](O[C@H]3[C@H](O1)O[C@H](C)[C@H](O)[C@@H]3O)O[C@@H](C)[C@H](O[C@@H]1O[C@@H](C)[C@H](O[C@@H]3O[C@@H](C)[C@H](O)[C@@H](O)[C@H]3O)[C@@H](O[C@@H]3O[C@@H](C)[C@H](O)[C@@H](O)[C@H]3O)[C@H]1OC(=O)[C@@H](C)CC)[C@H]2O", "note": "[MURUCOIDIN I]", "EC50": "> 20"},
      {"smiles": "CCCCC[C@H]1CCCCCCCCCC(=O)O[C@H]2[C@H](O[C@H]3[C@H](O1)O[C@H](C)[C@H](O)[C@@H]3O)O[C@@H](C)[C@H](O[C@@H]1O[C@@H](C)[C@H](O[C@@H]3O[C@@H](C)[C@H](OC(=O)C(C)C)[C@@H](O)[C@H]3O)[C@@H](O[C@@H]3O[C@@H](C)[C@H](O)[C@@H](O)[C@H]3O)[C@H]1OC(=O)[C@@H](C)CC)[C@H]2O", "note": "[MURUCOIDIN II]", "EC50": "> 20"},
      {"smiles": "CC[C@]1(O)C[C@@H]2CN(CCc3c([nH]c4ccccc34)[C@@](C(=O)OC)(c3cc4c(cc3OC)N(C)[C@H]3[C@@](O)(C(=O)OC)[C@H](OC(C)=O)[C@]5(CC)C=CCN6CC[C@]43[C@@H]65)C2)C1", "note": "[VINBLASTINE]", "EC50": 0.001},
      {"smiles": "CCCCC[C@H]1CCCCCCCCCC(=O)O[C@H]2[C@@H](O)[C@H](O[C@H]3[C@H](O1)O[C@H](C)[C@H](O)[C@@H]3O)O[C@@H](C)[C@@H]2O[C@@H]1O[C@@H](C)[C@H](O[C@@H]2O[C@@H](C)[C@H](OC(=O)[C@@H](C)CC)[C@@H](O)[C@H]2O)[C@@H](O[C@@H]2O[C@@H](C)[C@H](O)[C@@H](O)[C@H]2O)[C@H]1OC(=O)[C@@H](C)CC", "note": "[STOLONIFERIN I]", "EC50": "> 20"},
      {"smiles": "CCCCC[C@H]1CCCCCCCCCC(=O)O[C@H]2[C@H](O[C@H]3[C@H](O1)O[C@H](C)[C@H](O)[C@@H]3O)O[C@@H](C)[C@H](O[C@@H]1O[C@@H](C)[C@H](O[C@@H]3O[C@@H](C)[C@H](OC(=O)[C@@H](C)CC)[C@@H](O)[C@H]3O)[C@@H](O[C@@H]3O[C@@H](C)[C@H](O)[C@@H](O)[C@H]3O)[C@H]1OC(=O)[C@@H](C)CC)[C@H]2O", "note": "[MURUCOIDIN III]", "EC50": "> 20"},
      {"smiles": "CCCCC[C@H]1CCCCCCCCCC(=O)O[C@H]2[C@H](O[C@H]3[C@H](O1)O[C@H](C)[C@H](O)[C@@H]3O)O[C@@H](C)[C@H](O[C@@H]1O[C@@H](C)[C@H](O[C@@H]3O[C@@H](C)[C@H](OC(=O)[C@@H](C)CC)[C@@H](O)[C@H]3O)[C@@H](O[C@@H]3O[C@H](CO)[C@@H](O)[C@H](O)[C@H]3O)[C@H]1OC(=O)[C@@H](C)CC)[C@H]2O", "note": "[MURUCOIDIN IV]", "EC50": 4}
    ]}
  ]
}
